Key:
Assay in all cases: relative viability (nuclei count vs DMSO), 5 days (fraction); higher = more cells survive
Vandetanib + Olaparib = compound: COc1cc2/c(=N/c3ccc(Br)cc3F)nc[nH]c2cc1OCC1CCN(C)CC1 [Vandetanib] + O=C(c1cc(Cc2n[nH]c(=O)c3ccccc23)ccc1F)N1CCN(C(=O)C2CC2)CC1 [Olaparib] (partner 8 µM)
In short: (§1)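 Cells from lung cancer lines were seeded into 1536-well plates and, one day later, dosed by pin tool. Treatments were either a single drug or a fixed dose of an anchor drug with five library-drug doses (not always all listed) in √10 steps. After 5 days, nuclei were stained in a one-step fixation (final 0.05% Triton X-100, 1% formaldehyde, 1 ug/ml Hoechst) and counted on 4× images, and relative viability is the treated-to-vehicle nuclei ratio, as the median of duplicate plates.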

Vandetanib + OSI-027 = compound: COc1cc2/c(=N/c3ccc(Br)cc3F)nc[nH]c2cc1OCC1CCN(C)CC1 [Vandetanib] + COc1cccc2cc(-c3nc([C@H]4CC[C@H](C(=O)O)CC4)n4ncnc(N)c34)[nH]c12 [OSI-027] (partner 0.5 µM)
In short: as §1

[1] = compound: C1=CC=C2C(=C1)N=C(S2)C(C#N)C3=NC(=NC=C3)NCCC4=CN=CC=C4 + Cc1nc(Nc2ncc(C(=O)Nc3c(C)cccc3Cl)s2)cc(N2CCN(CCO)CC2)n1 [Dasatinib] (partner 0.075 µM)
In short: as §1

CUDC-101 + Linsitinib = compound: C#Cc1cccc(Nc2ncnc3cc(OC)c(OCCCCCCC(=O)NO)cc23)c1 [CUDC-101] + C[C@]1(O)C[C@@H](c2nc(-c3ccc4ccc(-c5ccccc5)nc4c3)c3c(N)nccn32)C1 [Linsitinib] (partner 1 µM)
In short: as §1

| Cell Line | relative viability (Vandetanib + Olaparib; first compound 0.02 µM) | relative viability (Vandetanib + Olaparib; first compound 0.06325 µM) | relative viability (Vandetanib + Olaparib; first compound 0.2 µM) | relative viability (Vandetanib + Olaparib; first compound 0.6325 µM) | relative viability (Vandetanib + Olaparib; first compound 2 µM) | relative viability (Vandetanib + OSI-027; first compound 0.02 µM) | relative viability (Vandetanib + OSI-027; first compound 0.06325 µM) | relative viability (Vandetanib + OSI-027; first compound 0.2 µM) | relative viability (Vandetanib + OSI-027; first compound 0.6325 µM) | relative viability (Vandetanib + OSI-027; first compound 2 µM) | relative viability ([1]; first compound 0.005 µM) | relative viability ([1]; first compound 0.01581 µM) | relative viability ([1]; first compound 0.05 µM) | relative viability ([1]; first compound 0.1581 µM) | relative viability ([1]; first compound 0.5 µM) | relative viability (CUDC-101 + Linsitinib; first compound 0.01 µM) | relative viability (CUDC-101 + Linsitinib; first compound 0.03162 µM) | relative viability (CUDC-101 + Linsitinib; first compound 0.1 µM) | relative viability (CUDC-101 + Linsitinib; first compound 0.3162 µM) | relative viability (CUDC-101 + Linsitinib; first compound 1 µM) |
| --- | --- | --- | --- | --- | --- | --- | --- | --- | --- | --- | --- | --- | --- | --- | --- | --- | --- | --- | --- | --- |
| NCI-H1355 | 0.754 | 0.665 | 0.734 | 0.825 | 0.684 | 0.446 | 0.362 | 0.386 | 0.5 | 0.387 | 0.674 | 0.66 | 0.699 | 0.772 | 0.478 | 0.887 | 0.761 | 0.822 | 0.739 | 0.645 |
| NCI-H1395 | 0.511 | 0.487 | 0.442 | 0.523 | 0.494 | 0.614 | 0.65 | 0.665 | 0.526 | 0.588 | 0.353 | 0.398 | 0.408 | 0.411 | 0.396 | 1.13 | 1.05 | 0.963 | 1.07 | 0.888 |
| NCI-H1437 | 0.588 | 0.667 | 0.643 | 0.615 | 0.612 | 0.835 | 0.899 | 0.868 | 0.886 | 0.964 | 0.363 | 0.303 | 0.528 | 0.562 | 0.376 | 1.16 | 0.842 | 0.957 | 0.983 | 0.4 |
| NCI-H1651 | 0.176 | 0.179 | 0.17 | 0.165 | 0.19 | 0.595 | 0.703 | 0.667 | 0.616 | 0.628 | 0.307 | 0.35 | 0.587 | 0.393 | 0.3 | 1.14 | 0.866 | 0.996 | 1.04 | 0.912 |
| NCI-H1666 | 0.787 | 0.749 | 0.812 | 0.758 | 0.754 | 0.858 | 0.765 | 0.836 | 0.788 | 0.751 | 0.603 | 0.754 | 0.734 | 0.838 | 0.818 | 0.747 | 0.741 | 0.759 | 0.84 | 0.519 |
| NCI-H1734 | 0.58 | 0.576 | 0.679 | 0.612 | 0.572 | 0.576 | 0.605 | 0.543 | 0.611 | 0.652 | – | 0.476 | 0.479 | 0.605 | 0.401 | 0.948 | 0.796 | 0.858 | 0.961 | 0.704 |
| NCI-H1755 | 0.917 | 0.863 | 0.848 | 0.822 | 0.863 | 0.688 | 0.649 | 0.757 | 0.689 | 0.672 | 0.365 | 0.397 | 0.404 | 0.456 | 0.384 | 1.04 | 0.988 | 0.994 | 0.986 | 0.968 |
| NCI-H1792 | 0.425 | 0.442 | 0.469 | 0.66 | 0.409 | 0.761 | 0.715 | 0.784 | 0.751 | 0.63 | 0.722 | 0.83 | 0.837 | 1.29 | 0.665 | 0.558 | 0.407 | 0.54 | 0.547 | 0.454 |
| NCI-H1793 | 0.86 | 0.803 | 0.74 | 0.658 | 0.577 | 0.302 | 0.25 | 0.238 | 0.292 | 0.274 | 0.366 | 0.419 | 0.363 | 0.436 | 0.435 | 0.898 | 0.73 | 0.803 | 0.779 | 0.633 |
| NCI-H1915 | 0.244 | 0.227 | 0.265 | 0.231 | 0.24 | 0.599 | 0.575 | 0.616 | 0.648 | 0.569 | 0.36 | 0.294 | 0.28 | 0.335 | 0.357 | 1.1 | 1.16 | 1.07 | 1.11 | 1 |
| NCI-H1944 | 0.414 | 0.396 | 0.306 | 0.377 | 0.397 | 0.398 | 0.433 | 0.408 | 0.396 | 0.382 | 0.211 | 0.195 | 0.21 | 0.22 | 0.2 | 1.27 | 0.898 | 1.14 | 1.05 | 0.849 |
| NCI-H1975 | 0.807 | 0.733 | 0.795 | 0.684 | 0.716 | 0.719 | 0.728 | 0.77 | 0.683 | 0.612 | 0.352 | 0.333 | 0.35 | 0.37 | 0.24 | 1.1 | 0.881 | 1.01 | 0.888 | 0.905 |
| NCI-H1993 | 1.06 | 0.977 | 1.16 | 0.911 | 0.893 | 0.521 | 0.573 | 0.557 | 0.637 | 0.552 | 0.565 | 0.607 | 0.487 | 0.673 | 0.536 | 0.755 | 0.756 | 0.738 | 0.772 | 0.705 |

From the supplement of paper PMC10307832
